Data from PMC11435438, “Cyclin-Dependent Kinase 8 Represents a Positive Regulator of Cytomegalovirus Replication and a Novel Host Target for Antiviral Strategies” (Pharmaceutics, 2024).

Legend:
[1] = test system: RhCMV-GFP; assay: RhCMV-GFP replication assay in HFFs; type: cell-based, rhesus cytomegalovirus; details: in Macaca mulatta, read-out: EC50 RhCMV
Description: (§1) Similarly, 2 × 10^4 primary embryonic guinea pig fibroblasts GPEFs/96-well, or 1.35 × 10^4 HFFs/96-well, or 2 × 10^4 rat REFs/96-well, or 2 × 10^4 murine MEFs/96-well, were cultivated for infection with GPCMV-GFP, RhCMV-GFP, ChCMV, RCMV-mCherry, or MCMV-GFP, respectively (all approx. MOI of 0.01 referring to 1 × TCID25), and were used for the assessment of antiviral drug activity. To this end, cells were fixed 7 d p.i. (RCMV-mCherry 4 d p.i.), before GFP or mCherry expression was quantified using the Victor X4 microplate reader, or other viral replication markers were measured as explained for the individual experiments. ChCMV replication in HFFs was monitored and quantified by the use of Anti-Cytomegalovirus Antibody Alexa Fluor™ 488. For immunofluorescence staining with Anti-Cytomegalovirus Antibody Alexa Fluor™ 488 (Sigma Aldrich, St. Louis, MO, USA; solution in PBS with 1% FCS), the infected cells were fixed at 7 d p.i. with 10% formalin and permeabilized with 0.2% Triton-x-100. Cell nuclei were counterstained using Höchst dye to be measured using the ImageXpress Pico (Molecular Devices, LLC, San Jose, CA, USA). Mean EC50 values of antiviral efficacy were calculated on the basis of three experimental replicates or as indicated (measurement of fluorescence values in quadruplicate), and percentage values were provided relative to the solvent control (DMSO).

[2] = test system: MHV-68-Luc; assay: MHV-68 replication assay in Vero cells; type: cell-based, murine herpesvirus 68; details: Murine herpesvirus, read-out: EC50 MHV-68
Protocol: (§2) Primary human foreskin fibroblasts (HFFs; obtained from clinical samples at Children’s Hospital in Erlangen, Germany), guinea pig embryonic fibroblasts (GPEFs; generously provided by Mark R. Schleiss from the University of Minnesota in Minneapolis, MN, USA), and rat embryonic fibroblasts were cultivated in Eagle’s Minimal Essential Medium (MEM) supplemented with 1 × GlutaMAX™ (both from Thermo Fisher Scientific, Waltham, MA, USA), 10 µg/mL gentamicin, and 10% fetal bovine serum (FBS; Capricorn, Ebsdorfergrund, Germany). Human glioblastoma–astrocytoma cell line (U373) and mouse embryonic fibroblasts (MEFs), both obtained from ATCC (Manassas, VA, USA), and Vero cell sublineage 76 [26], were cultivated in Dulbecco’s modified Eagle’s medium (DMEM) supplemented with 1 × GlutaMAX™, 10 µg/mL gentamicin, and 10% fetal bovine serum. All cultured cells were maintained under the conditions of 37 °C temperature, 5% CO2, and 80% humidity. The regular monitoring for the absence of mycoplasma contamination was conducted using Lonza™ Mycoalert™ (Thermo Fisher Scientific, Waltham, MA, USA). Cultured cell-based viral replication assays were performed by the use of the HCMV strain AD169 (variant U.K.), the recombinant HCMVs AD169-GFP expressing green fluorescent protein [27], TB40 IE2-YFP and TB40-FLuc expressing an IE2-YFP fusion protein or firefly luciferase (FLuc), and Merlin-GFP [31]. […]
(§3) A variety of antiherpesviral and non-herpesviral drug activities were assessed by the cell culture-based viral replication systems, as described elsewhere. […] After incubation at 37 °C for 3 days, iSLK.219 cells were fixed with 10% formalin, washed with PBS, and used for a quantitation of RFP reporter signal by PicoMD counting (ImageXpress® Pico device, Molecular Devices LLC, San Jose, CA, USA). […]

[3] = test system: VZV Oka-GFP; assay: VZV replication assay in HFFs; type: cell-based, varicella zoster virus; details: Human alphaherpesvirus 3, read-out: EC50 VZV
Protocol: as §2, §3

[4] = test system: MCMV-GFP; assay: MCMV-GFP replication assay in MEFs; type: cell-based, murine cytomegalovirus; details: Murid betaherpesvirus 1, read-out: EC50 MCMV
Description: as §1

Compound	EC50 [1] [nM]	EC50 [2] [nM]	EC50 [3] [nM]	EC50 [4] [nM]
CN(C)C(=O)Cn1cc(-c2ccc(-c3cncc4ccccc34)cc2)cn1 [BI-1347]	0.4 ± 0.48	0.8 ± 1	26000 ± 10000	1.57 ± 1.71
Cn1ncc2cc(-c3cnc(N)c(Cl)c3N3CCC4(CCNC4=O)CC3)ccc21 [CCT-151921]	2.48 ± 1.63	22 ± 19	28000 ± 9000	2.65 ± 4.5
Cc1n[nH]c2ncc(C(=O)N3CCC[C@H]3c3ccc(Cl)cc3)cc12 [MSC-2530818]	2.17 ± 1.37	2.5 ± 3	> 50000	1.8 ± 1.99
